Measured values from PubChem BioAssay (NCI).
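96-well plates; 48 h exposure; 5 concentrations. Endpoints by linear interpolation between flanking doses. Not reached: highest tested concentration assigned. TGI denotes the concentration required for complete inhibition of growth.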

Tests used:
Test in all cases: growth of human tumour cells (NCI), 48 h
786-0 renal = system: 786-0 renal
A498 renal = system: A498 renal
A549 NSCLC = system: A549 NSCLC
ACHN renal = system: ACHN renal
BT-549 breast = system: BT-549 breast
CAKI-1 renal = system: CAKI-1 renal
CCRF-CEM leukemia = system: CCRF-CEM leukemia
COLO 205 colon = system: COLO 205 colon
DU-145 prostate = system: DU-145 prostate
EKVX NSCLC = system: EKVX NSCLC
HCC-2998 colon = system: HCC-2998 colon
HCT-116 colon = system: HCT-116 colon
HCT-15 colon = system: HCT-15 colon
HL-60(TB) leukemia = system: HL-60(TB) leukemia
HOP-62 NSCLC = system: HOP-62 NSCLC
HS 578T breast = system: HS 578T breast
HT29 colon = system: HT29 colon
IGROV1 ovarian = system: IGROV1 ovarian
K-562 leukemia = system: K-562 leukemia
KM12 colon = system: KM12 colon
LOX IMVI melanoma = system: LOX IMVI melanoma
M14 melanoma = system: M14 melanoma
MALME-3M melanoma = system: MALME-3M melanoma
MCF7 breast = system: MCF7 breast
MDA-MB-231 breast = system: MDA-MB-231 breast
MDA-MB-435 = system: MDA-MB-435
MDA-N = system: MDA-N
MOLT-4 leukemia = system: MOLT-4 leukemia
NCI-H226 lung = system: NCI-H226 lung
NCI-H23 lung = system: NCI-H23 lung
NCI-H460 lung = system: NCI-H460 lung
NCI-H522 lung = system: NCI-H522 lung
NCI/ADR-RES ovarian = system: NCI/ADR-RES ovarian
OVCAR-3 ovarian = system: OVCAR-3 ovarian
OVCAR-5 ovarian = system: OVCAR-5 ovarian
OVCAR-8 ovarian = system: OVCAR-8 ovarian
PC-3 prostate = system: PC-3 prostate
RPMI-8226 leukemia = system: RPMI-8226 leukemia
SF-268 CNS = system: SF-268 CNS
SF-295 CNS = system: SF-295 CNS
SF-539 CNS = system: SF-539 CNS
SK-MEL-2 melanoma = system: SK-MEL-2 melanoma
SK-MEL-28 melanoma = system: SK-MEL-28 melanoma
SK-MEL-5 melanoma = system: SK-MEL-5 melanoma
SK-OV-3 ovarian = system: SK-OV-3 ovarian
SN12C renal = system: SN12C renal
SNB-19 CNS = system: SNB-19 CNS
SNB-75 CNS = system: SNB-75 CNS
SR leukemia = system: SR leukemia
SW-620 colon = system: SW-620 colon
T-47D breast = system: T-47D breast
TK-10 renal = system: TK-10 renal
U251 CNS = system: U251 CNS
UACC-257 melanoma = system: UACC-257 melanoma
UACC-62 melanoma = system: UACC-62 melanoma
UO-31 renal = system: UO-31 renal
HOP-92 NSCLC = system: HOP-92 NSCLC
RXF 393 renal = system: RXF 393 renal
OVCAR-4 ovarian = system: OVCAR-4 ovarian

CC(=O)OC(Cc1c(O)c2c(C)cccc2oc1=O)C(C)(C)O (configuration not stated)
TGI (786-0 renal): > 100 µM
TGI (A498 renal): > 100 µM
TGI (A549 NSCLC): > 100 µM
TGI (ACHN renal): > 100 µM
TGI (BT-549 breast): > 100 µM
TGI (CAKI-1 renal): > 100 µM
TGI (CCRF-CEM leukemia): > 100 µM
TGI (COLO 205 colon): > 100 µM
TGI (DU-145 prostate): > 100 µM
TGI (EKVX NSCLC): > 100 µM
TGI (HCC-2998 colon): > 100 µM
TGI (HCT-116 colon): > 100 µM
TGI (HCT-15 colon): > 100 µM
TGI (HL-60(TB) leukemia): > 100 µM
TGI (HOP-62 NSCLC): > 100 µM
TGI (HS 578T breast): > 100 µM
TGI (HT29 colon): > 100 µM
TGI (IGROV1 ovarian): > 100 µM
TGI (K-562 leukemia): > 100 µM
TGI (KM12 colon): > 100 µM
TGI (LOX IMVI melanoma): > 100 µM
TGI (M14 melanoma): > 100 µM
TGI (MALME-3M melanoma): > 100 µM
TGI (MCF7 breast): > 100 µM
TGI (MDA-MB-231 breast): > 100 µM
TGI (MDA-MB-435): > 100 µM
TGI (MDA-N): > 100 µM
TGI (MOLT-4 leukemia): > 100 µM
TGI (NCI-H226 lung): > 100 µM
TGI (NCI-H23 lung): > 100 µM
TGI (NCI-H460 lung): > 100 µM
TGI (NCI-H522 lung): > 100 µM
TGI (NCI/ADR-RES ovarian): > 100 µM
TGI (OVCAR-3 ovarian): > 100 µM
TGI (OVCAR-5 ovarian): > 100 µM
TGI (OVCAR-8 ovarian): > 100 µM
TGI (PC-3 prostate): > 100 µM
TGI (RPMI-8226 leukemia): > 100 µM
TGI (SF-268 CNS): > 100 µM
TGI (SF-295 CNS): > 100 µM
TGI (SF-539 CNS): > 100 µM
TGI (SK-MEL-2 melanoma): > 100 µM
TGI (SK-MEL-28 melanoma): > 100 µM
TGI (SK-MEL-5 melanoma): > 100 µM
TGI (SK-OV-3 ovarian): > 100 µM
TGI (SN12C renal): > 100 µM
TGI (SNB-19 CNS): > 100 µM
TGI (SNB-75 CNS): > 100 µM
TGI (SR leukemia): > 100 µM
TGI (SW-620 colon): > 100 µM
TGI (T-47D breast): > 100 µM
TGI (TK-10 renal): > 100 µM
TGI (U251 CNS): > 100 µM
TGI (UACC-257 melanoma): > 100 µM
TGI (UACC-62 melanoma): > 100 µM
TGI (UO-31 renal): > 100 µM

CN(C)Cc1cc(N=Nc2ccc(Cl)cc2)cc(CN(C)C)c1O
TGI (786-0 renal): 17.9 µM
TGI (A498 renal): 29.8 µM
TGI (A549 NSCLC): 21.3 µM
TGI (ACHN renal): 19 µM
TGI (BT-549 breast): 23.8 µM
TGI (CAKI-1 renal): 26.8 µM
TGI (CCRF-CEM leukemia): 7 µM
TGI (COLO 205 colon): 13.4 µM
TGI (DU-145 prostate): 35.4 µM
TGI (HCC-2998 colon): 23.6 µM
TGI (HCT-116 colon): 17.5 µM
TGI (HCT-15 colon): 21 µM
TGI (HL-60(TB) leukemia): 4.94 µM
TGI (HOP-62 NSCLC): 14.6 µM
TGI (HOP-92 NSCLC): 21.7 µM
TGI (HS 578T breast): 27.7 µM
TGI (HT29 colon): 19 µM
TGI (IGROV1 ovarian): 12 µM
TGI (K-562 leukemia): 6.75 µM
TGI (KM12 colon): 20.7 µM
TGI (LOX IMVI melanoma): 16.1 µM
TGI (M14 melanoma): 37.6 µM
TGI (MALME-3M melanoma): 28.6 µM
TGI (MCF7 breast): 21.3 µM
TGI (MDA-MB-231 breast): 20.9 µM
TGI (MDA-MB-435): 24.6 µM
TGI (MDA-N): 29.2 µM
TGI (MOLT-4 leukemia): 10.7 µM
TGI (NCI-H226 lung): 17.7 µM
TGI (NCI-H23 lung): 40.7 µM
TGI (NCI-H460 lung): 18.1 µM
TGI (NCI-H522 lung): 5.97 µM
TGI (NCI/ADR-RES ovarian): 13.6 µM
TGI (OVCAR-3 ovarian): 6.78 µM
TGI (OVCAR-8 ovarian): 12.7 µM
TGI (PC-3 prostate): 18.8 µM
TGI (RPMI-8226 leukemia): 37 µM
TGI (RXF 393 renal): 25.1 µM
TGI (SF-268 CNS): 30.3 µM
TGI (SF-295 CNS): 24.7 µM
TGI (SF-539 CNS): 23.2 µM
TGI (SK-MEL-2 melanoma): 27.8 µM
TGI (SK-MEL-28 melanoma): 23.9 µM
TGI (SK-MEL-5 melanoma): 21.1 µM
TGI (SK-OV-3 ovarian): 33.3 µM
TGI (SN12C renal): 23.8 µM
TGI (SNB-19 CNS): 25.5 µM
TGI (SNB-75 CNS): 25.8 µM
TGI (SR leukemia): 22.8 µM
TGI (SW-620 colon): 21.1 µM
TGI (T-47D breast): 33.6 µM
TGI (TK-10 renal): 21.3 µM
TGI (U251 CNS): 19.8 µM
TGI (UACC-257 melanoma): 31.5 µM
TGI (UACC-62 melanoma): 30.2 µM
TGI (UO-31 renal): 7.23 µM

CCOC(=O)c1nnc2c(C#N)c(-c3ccccc3)c(C)n2c1N
TGI (786-0 renal): > 100 µM
TGI (A498 renal): 79.4 µM
TGI (A549 NSCLC): > 100 µM
TGI (ACHN renal): > 100 µM
TGI (BT-549 breast): > 100 µM
TGI (CAKI-1 renal): > 100 µM
TGI (CCRF-CEM leukemia): > 100 µM
TGI (COLO 205 colon): > 100 µM
TGI (DU-145 prostate): > 100 µM
TGI (EKVX NSCLC): > 100 µM
TGI (HCC-2998 colon): > 100 µM
TGI (HCT-116 colon): > 100 µM
TGI (HCT-15 colon): > 100 µM
TGI (HOP-62 NSCLC): > 100 µM
TGI (HS 578T breast): 85.7 µM
TGI (HT29 colon): > 100 µM
TGI (IGROV1 ovarian): 66.6 µM
TGI (K-562 leukemia): > 100 µM
TGI (KM12 colon): > 100 µM
TGI (LOX IMVI melanoma): > 100 µM
TGI (M14 melanoma): > 100 µM
TGI (MALME-3M melanoma): 65.2 µM
TGI (MCF7 breast): > 100 µM
TGI (MDA-MB-231 breast): > 100 µM
TGI (MDA-MB-435): > 100 µM
TGI (MDA-N): > 100 µM
TGI (MOLT-4 leukemia): > 100 µM
TGI (NCI-H23 lung): > 100 µM
TGI (NCI-H460 lung): > 100 µM
TGI (NCI-H522 lung): 70.5 µM
TGI (NCI/ADR-RES ovarian): > 100 µM
TGI (OVCAR-3 ovarian): > 100 µM
TGI (OVCAR-4 ovarian): 43.6 µM
TGI (OVCAR-5 ovarian): > 100 µM
TGI (OVCAR-8 ovarian): 98.3 µM
TGI (PC-3 prostate): > 100 µM
TGI (RPMI-8226 leukemia): 53.9 µM
TGI (RXF 393 renal): > 100 µM
TGI (SF-268 CNS): > 100 µM
TGI (SF-295 CNS): > 100 µM
TGI (SF-539 CNS): > 100 µM
TGI (SK-MEL-2 melanoma): > 100 µM
TGI (SK-MEL-28 melanoma): 73.2 µM
TGI (SK-MEL-5 melanoma): > 100 µM
TGI (SK-OV-3 ovarian): > 100 µM
TGI (SN12C renal): > 100 µM
TGI (SNB-19 CNS): 89.2 µM
TGI (SR leukemia): > 100 µM
TGI (SW-620 colon): > 100 µM
TGI (T-47D breast): > 100 µM
TGI (TK-10 renal): > 100 µM
TGI (U251 CNS): > 100 µM
TGI (UACC-257 melanoma): 92.7 µM
TGI (UACC-62 melanoma): 66.6 µM
TGI (UO-31 renal): > 100 µM
